Columns and labels:
senescent A549 cells = assay: Viability of senescent A549 cells (CellTiter-Glo), Example 18, Table 15; details: Homo sapiens, A549, read-out: Survival (%)
Description: Senescence-induced cancer cells treated with doxorubicin were treated with the test compound at designated concentrations, and cell viability was measured using the CellTiter-Glo Luminescent Cell Viability Assay (Promega).

senescent cells = assay: Viability of senescent cells (CellTiter-Glo), Example 17, Table 13; details: Homo sapiens, read-out: Survival (%)
Description: Cells induced to undergo senescence by doxorubicin treatment were treated with test compound at designated concentrations and measured using the CellTiter-Glo Luminescent Cell Viability Assay (Promega).

[1] = tested on: bleomycin-induced pulmonary fibrosis mice; assay: Bleomycin-induced pulmonary fibrosis mice, Example 31, Table 56; format: in vivo, mouse; details: untreated = 100%
Description: (§1) The control group was administered only the solution in the same volume. After the end of drug administration, the method described in each example below was performed. Liver, kidney, skin, knee joint, heart, and femur tissues were collected from mice in which natural aging was induced in the same manner as in Examples 7-2 and 7-6 of WO2023-085787 A1. Lung tissues were collected from mice in which pulmonary fibrosis was induced using the same method as in Example 24-1. Liver tissues were collected from mice in which hepatic fibrosis was induced using the same method as in Example 26, and total RNA was extracted. qRT-PCR was performed and analyzed using the synthesized cDNA. […] The mRNA amounts of p16, MMP3, and IL6 after natural aging was induced were calculated as 100% and compared with the mRNA amounts of p16, MMP3, and IL6 after treatment with the test compound. In addition, an open field test for the analysis of aging-related frailty, agtr1a mRNA analysis for kidney damage and disease evaluation, col1a1 and SDF1 mRNA analysis for skin aging evaluation such as wrinkles/loss of elasticity/hyperpigmentation, col2a1 mRNA analysis for evaluating joint aging such as osteoarthritis, sur2a mRNA analysis for evaluating cardiac aging such as decreased cardiac load resistance, ctsk mRNA analysis for evaluating bone diseases due to aging such as osteoporosis, muscle tissue weight for analyzing sarcopenia, fat tissue weight for analyzing lipoatrophy, and cataract incidence analysis were performed in mice. For cataract incidence analysis, the drug was administered twice a week under the conditions specified above, and biweekly examinations were conducted until death.
The table below quantitatively presents the evaluation results for each item in mice with bleomycin-induced pulmonary fibrosis, untreated and treated with the test compound.

[2] = tested on: carbon tetrachloride-induced liver fibrosis mice; assay: Carbon tetrachloride-induced liver fibrosis mice, Example 31, Table 57; format: in vivo, mouse; details: CCl4-induced liver fibrosis mice, untreated = 100%
Description: as §1

naturally aged mice = assay: Anti-aging evaluation in naturally aged mice, Example 31, Table 55; format: in vivo, mouse; details: for Femur Ctsk mRNA / Kidney Agtr1a mRNA / Liver IL6 mRNA / Liver MMP3 mRNA / Liver p16 mRNA / Open Field Test Time in Center: untreated = 100%; for Heart Sur2a mRNA / Joint Col2a1 mRNA / Skin Col1a1 mRNA / Skin SDF1 mRNA: untreated = 1.0; for Muscle Mass: untreated 0.64 g; for Fat Mass: untreated 0.82 g; for Cataract incidence: untreated 83%;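 as to all read-outs here: Vehicle-dosed control mice received solution alone at matching volume, values compare test-compound-treated aged mice against that control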

SMILES | viability at 1.1 µM (senescent A549 cells) [%] | viability at 10 µM (senescent A549 cells) [%] | viability at 1.1 µM (senescent cells) [%] | viability at 10 µM (senescent cells) [%] | viability at 30 µM (senescent cells) [%] | Lung p16 mRNA [1] | Col1a1 mRNA [1] | Liver p16 mRNA [2] | Col1a1 mRNA [2] | Femur Ctsk mRNA (naturally aged mice) [%] | Heart Sur2a mRNA (naturally aged mice) [fold] | Joint Col2a1 mRNA (naturally aged mice) [fold] | Kidney Agtr1a mRNA (naturally aged mice) [%] | Liver IL6 mRNA (naturally aged mice) [%] | Liver MMP3 mRNA (naturally aged mice) [%] | Liver p16 mRNA (naturally aged mice) [%] | Open Field Test Time in Center (naturally aged mice) [%] | Skin Col1a1 mRNA (naturally aged mice) [Fold] | Skin SDF1 mRNA (naturally aged mice) [fold] | Muscle Mass (naturally aged mice) [g] | further results
O=C1C2CCN(CC2)C1(CO)COCc1ccccc1 (stereo not drawn) [LX-5711] | 89 | 52.5 | 95.1 | 63.7 | 20.6 | 70 (±3.8) % | 71 (±4.0) % | 63 (±4.3) % | 74 (±3.0) % | 62 | 2.3 | 2.3 | 63 | 48 | 61 | 65 | 191 | 1.5 | 1.8 | 0.68 | viability at 30 µM (senescent A549 cells): 11.9%; Fat Mass (naturally aged mice): 0.93 g; Cataract incidence (naturally aged mice): 72%
[2H]C([2H])([2H])OCC1(CO)C(=O)C2CCN1CC2 (stereo not drawn) [LX-5721] | 106 | 17.8 | 98.5 | 45.5 | 13.4 | 65 (±5.6) % | 78 (±4.7) % | 52 (±9.6) % | 80 (±9.3) % | 63 | 2.7 | 2.0 | 59 | 54 | 72 | 41 | 218 | 1.7 | 1.7 | 0.68 | Fat Mass (naturally aged mice): 0.97 g; Cataract incidence (naturally aged mice): 71%
[2H]C12CCN(CC1)C(CO)(COC)C2=O (stereo not drawn) [LX-5722] | 99 | 4.1 | 91.5 | 34.1 | 1.8 | 73 (±5.5) % | 78 (±7.2) % | 69 (±6.2) % | 76 (±6.4) % | 59 | 2.4 | 2.1 | 52 | 73 | 63 | 46 | 222 | 1.8 | 1.6 | 0.70 | Fat Mass (naturally aged mice): 1.03 g; Cataract incidence (naturally aged mice): 69%
CN(NC(=O)CC(=O)NN(C)C(=S)c1ccccc1)C(=S)c1ccccc1 [LX-6501, Elesclomol] | 97 | 62.4 | 94.5 | 71.5 | 7.8 | 68 (±4.4) % | 75 (±5.3) % | 34 (±3.0) % | 75 (±2.5) % | 64 | 1.8 | 2.7 | 49 | 46 | 56 | 38 | 214 | 1.9 | 2.2 | 0.71 | viability at 30 µM (senescent A549 cells): 13%; Fat Mass (naturally aged mice): 0.89 g; Cataract incidence (naturally aged mice): 48%

From US20260306460A1, “COMPOSITION FOR REMOVING AND INHIBITING SENESCENT CELLS, AND USES THEREOF” (LIFECEUTIX CO., LTD., priority 2023, published 2026)
